{
  "source": "patent US9180164B2",
  "about": "“Compounds and methods of modulating angiogenesis” (THE CLEVELAND CLINIC FOUNDATION, priority 2011, dated 2015)",
  "key": {"[1]": {"system": "αvβ3 integrin", "experiment": "WOW-1 binding assay, HUVECs", "type": "cell-based, Human", "conditions": "FACS analysis", "protocol": "Semiconfluent HUVECs were serum starved for 4 h and further stimulated with 20 ng/mL VEGF-A165 or VEGFDΔNΔC. WOW-1 Fab was added to a final concentration of 30 μg/mL, followed by addition of FITC-conjugated goat anti-mouse IgG at 10 μg/mL. After 30 min cells were fixed with 3.7% formaldehyde in PBS for 15 min, washed twice with PBS, and fluorescence-activated cell sorting (FACS) was performed using a FACS Calibur (Becton Dickinson, San Jose, Calif.) and data were analyzed using CellQuest software."}, "[2]": {"target": "T1, αvβ3 integrin (Mus musculus, UniProt O54890+P43406)", "T1 construct": "endogenous in cells; host or cells: primary mouse lung endothelial cells", "T1 sequence (O54890 26-787)": "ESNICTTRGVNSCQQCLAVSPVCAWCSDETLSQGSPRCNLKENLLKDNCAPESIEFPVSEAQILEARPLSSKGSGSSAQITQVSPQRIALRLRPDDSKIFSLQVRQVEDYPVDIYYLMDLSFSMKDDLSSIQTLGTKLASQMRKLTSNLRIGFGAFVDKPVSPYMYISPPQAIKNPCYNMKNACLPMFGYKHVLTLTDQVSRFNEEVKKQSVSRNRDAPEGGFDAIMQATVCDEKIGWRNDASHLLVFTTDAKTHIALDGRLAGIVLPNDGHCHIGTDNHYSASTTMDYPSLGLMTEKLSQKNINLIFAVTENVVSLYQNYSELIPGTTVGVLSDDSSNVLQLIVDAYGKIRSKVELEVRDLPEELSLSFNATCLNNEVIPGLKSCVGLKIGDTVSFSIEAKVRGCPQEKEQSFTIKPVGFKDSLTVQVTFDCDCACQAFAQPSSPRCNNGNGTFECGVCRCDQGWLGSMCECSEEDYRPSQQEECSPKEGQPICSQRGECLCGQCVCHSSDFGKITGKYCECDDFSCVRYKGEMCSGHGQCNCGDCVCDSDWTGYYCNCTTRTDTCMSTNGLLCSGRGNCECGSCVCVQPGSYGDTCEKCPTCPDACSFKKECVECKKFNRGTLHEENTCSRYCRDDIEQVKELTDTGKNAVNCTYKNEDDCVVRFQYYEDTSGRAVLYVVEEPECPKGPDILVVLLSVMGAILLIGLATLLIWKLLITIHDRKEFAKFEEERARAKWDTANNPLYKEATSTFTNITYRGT", "T1 sequence (P43406 31-885 limits assumed)": "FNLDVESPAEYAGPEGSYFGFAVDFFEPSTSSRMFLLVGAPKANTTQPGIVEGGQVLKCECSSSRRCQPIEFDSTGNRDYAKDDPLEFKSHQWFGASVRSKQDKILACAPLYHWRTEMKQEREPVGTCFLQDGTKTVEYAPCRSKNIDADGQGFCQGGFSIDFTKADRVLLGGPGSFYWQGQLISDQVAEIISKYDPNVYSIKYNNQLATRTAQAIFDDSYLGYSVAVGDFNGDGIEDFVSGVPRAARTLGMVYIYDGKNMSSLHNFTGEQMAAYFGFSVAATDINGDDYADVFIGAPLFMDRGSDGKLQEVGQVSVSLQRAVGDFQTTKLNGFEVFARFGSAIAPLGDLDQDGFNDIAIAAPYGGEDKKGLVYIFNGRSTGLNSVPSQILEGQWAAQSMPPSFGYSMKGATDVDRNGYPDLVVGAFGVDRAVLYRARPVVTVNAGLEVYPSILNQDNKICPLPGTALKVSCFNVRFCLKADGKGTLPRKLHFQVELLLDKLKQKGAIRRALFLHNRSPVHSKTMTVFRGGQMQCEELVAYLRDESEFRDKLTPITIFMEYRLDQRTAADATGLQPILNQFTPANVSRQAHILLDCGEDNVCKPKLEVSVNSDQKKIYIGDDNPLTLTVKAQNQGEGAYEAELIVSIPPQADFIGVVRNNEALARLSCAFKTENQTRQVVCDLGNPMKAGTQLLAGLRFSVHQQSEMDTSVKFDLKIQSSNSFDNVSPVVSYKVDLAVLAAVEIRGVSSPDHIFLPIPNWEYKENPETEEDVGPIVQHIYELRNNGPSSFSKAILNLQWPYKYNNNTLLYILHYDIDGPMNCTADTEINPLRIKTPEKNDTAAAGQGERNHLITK", "T1 sequence (P43406 887-1044 limits assumed)": "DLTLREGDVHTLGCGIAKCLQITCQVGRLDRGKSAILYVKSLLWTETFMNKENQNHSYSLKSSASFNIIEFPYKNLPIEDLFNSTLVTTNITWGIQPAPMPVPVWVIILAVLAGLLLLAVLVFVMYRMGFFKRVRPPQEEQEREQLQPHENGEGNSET", "experiment": "Fibrinogen binding assay (FACS)", "type": "cell-based", "conditions": "WT EC; 20 ng/ml VEGF or 1 mM MnCl2", "protocol": "(§1) To assess fibrinogen binding, semiconfluent wild type and DiYF mouse lung endothelial cells were serum starved for 4 h and further induced with 20 ng/ml VEGF-165, 20 ng/ml b-FGF or 1 mm MnC12. Fluorescein isothiocyanate (FITC)-labeled fibrinogen was added at a final concentration of 200 nM for 45 min. […] Fluorescence-activated cell sorting (FACS) was performed using a FACS Calibur (Becton Dickinson, San Jose, Calif.) and data were analyzed using CellQuest software program."}, "[3]": {"system": "αvβ3 integrin", "experiment": "Fibrinogen binding assay (FACS)", "type": "cell-based, mouse", "conditions": "DiYF EC; 20 ng/ml VEGF or 1 mM MnCl2", "protocol": "as §1"}, "[4]": {"target": "T1, αvβ3 integrin", "experiment": "WOW-1 binding assay, mouse lung endothelial cells", "type": "cell-based", "conditions": "WT EC; 20 ng/ml VEGF or 1 mM MnCl2", "protocol": "(§2) Wild type and DiYF mouse lung endothelial cells were serum starved for 4 h and further stimulated with 20 ng/ml VEGF-165, 20 ng/ml b-FGF or 1 mm MnC12 separately. WoW-1 Fab was added at a final concentration of […], followed by addition of Fluorescein isothiocyanate (FITC) conjugated goat anti-mouse IgG at 10 μg/ml. After 30 min cells were fixed with 3.7% formaldehyde/PBS for 15 min, washed twice with 1×PBS and FACS was performed using a FACS Calibur (Becton Dickinson, San Jose, Calif.) instrument and data were analyzed using CellQuest software program."}, "[5]": {"system": "αvβ3 integrin", "experiment": "WOW-1 binding assay, mouse lung endothelial cells", "type": "cell-based", "conditions": "DiYF EC; 20 ng/ml VEGF or 1 mM MnCl2", "protocol": "as §2"}},
  "data": [
    {"substance": "VEGF", "values": [
      {"measurement": "increase of WOW-1 binding to EC compared to resting cells", "setting": "[1]", "result": 6, "unit": "fold"},
      {"measurement": "increase of fibrinogen binding", "setting": "[2]", "result": "at least 6 fold"},
      {"measurement": "increase of fibrinogen binding", "setting": "[3]", "result": 3, "unit": "fold"},
      {"measurement": "increase in WOW-1 binding", "setting": "[4]", "result": 9, "unit": "fold"},
      {"measurement": "increase in WOW-1 binding", "setting": "[5]", "result": 3.5, "unit": "fold"}
    ]}
  ]
}
